Data as given in PMC11679793, “Structure-Activity Relationship Study of Majusculamide D: Overcoming Metabolic Instability and Severe Toxicity with a Fluoro Analogue” (Marine Drugs, 2024).
Values after ≈ are worked out from the molar mass of the structure shown. Read-outs that look alike come from different tables or passages of the source.

Key:
PANC-1 cells = assay: MTT cell activity assay (inhibitory activity against PANC-1 cells); type: cell-based; conditions: Homo sapiens
Experimental: A total of 3000 PANC-1 cells were resuspended in 200 μL of culture medium and seeded into 96-well plates. After 24 h, the cells were treated with the compound and incubated for an additional 72 h. Following the incubation, 20 μL of 5 mg/mL MTT solution (Solarbio, China) was added to each well in the dark, and the cells were incubated for another 4 h. After incubation, the culture medium was discarded, and the wells were washed with PBS to remove any residual medium. Then, 200 μL of DMSO was added to each well to fully dissolve the formazan crystals, and the solution was mixed thoroughly. The absorbance was measured at 492 nm/570 nm, and the data were analyzed using GraphPad Prism.

[1] = Stability in mouse plasma assay; type: in vitro ADME; conditions: 1 μM, 37 °C; for stability in mouse plasma compared to 1a (in words): 0-24 h
Experimental: Thaw plasma at room temperature and vortex for 3–5 s. Centrifuge at 3000 rpm at 10 °C for 10 min, and carefully transfer the supernatant to a new Eppendorf tube. Preincubate the plasma at 37 °C for 10 min. Prepare a series of test substances by adding 3 μL of the compound (100 μM) to 297 μL of plasma to achieve a final concentration of 1 μM, ensuring that the DMSO concentration in plasma is 1%. Propantheline bromide is used as a positive control. Incubate the mixture at 37 °C, and at specified time points (0, 1, 2, 4, and 24 h), take 50 μL of the plasma sample. To terminate the reaction, add 250 μL of acetonitrile (containing an internal standard), vortex thoroughly, and centrifuge at 16,000 rcf (4 °C) for 10 min. Collect 130 μL of the supernatant and dilute with 70 μL of pure water for LC-MS/MS analysis. The concentration of the test substances in plasma samples was determined using LC-MS/MS. The stability of the test substance in plasma was evaluated by measuring the remaining percentage of the compound in the plasma over time.

PANC-1 xenograft tumor = conditions: for tumor inhibition rate (%): calculated from tumor weight, 1c, gemcitabine 20 mg/kg i.v.
Experimental: Furthermore, a xenografted murine subcutaneous tumor model was employed to evaluate the effects of majusculamide D and the optimized analogues 1c and 1n (Figure 1B). PANC1-bearing BALB/c nude mice were separated randomly, with a total of six mice in each group. Gemcitabine was chosen as the positive drug; the mice were then administered intravenous doses of 1c (5 mg/kg), 1n (5 mg/kg), 1a (5 mg/kg), and gemcitabine (20 mg/kg) every other day for 24 days.
A total of 4 × 10^6 PANC-1 cells suspended in 100 μL PBS were subcutaneously injected into the right shoulder region of BALB/c nude mice. When the tumor volume reached approximately 200 mm^3, the mice were euthanized, and the tumor tissues were harvested and designated as F1 generation. Tumor tissues were then cut into small cubes measuring approximately 3 × 3 × 3 mm, which were implanted into new BALB/c mice to propagate the tumors. This procedure was repeated to obtain the F2 generation of tumors. Finally, mice bearing F3 generation transplant tumors were used for drug treatment experiments. When the tumor volume reached approximately 80–100 mm^3, the mice were randomly divided into five groups (n = 6): control group, 5 mg/kg compound 1a group, 5 mg/kg compound 1c group, 5 mg/kg compound 1n group, and 20 mg/kg gemcitabine group. The compounds 1a, 1c, and 1n were dissolved in DMSO and then diluted with 0.9% physiological saline to achieve a final concentration of 0.5 mg/mL as the dosing concentration. Gemcitabine was dissolved directly in 0.9% saline to achieve a final concentration of 2 mg/mL as the dosing concentration. The compounds were administered intravenously every two days, alternating between the left and right tail veins to minimize vein damage. Injections were performed using ultra-fine syringes (30G needles) to reduce stress and ensure consistent delivery. The body weight and tumor volume of the mice were measured every four days. On day 24, the mice were euthanized, and the tumor weights were recorded. Tumor volume (V) was calculated using the formula: V = (ab^2)/2, with “a” representing the long diameter of the tumor and “b” representing the short diameter of the tumor. […] Tumor weight was used to calculate the tumor inhibition rate (Figure 1G).

[2] = Preliminary water solubility test; type: physicochemical; conditions: thermodynamic from solid, 25 °C, ultrasonic treatment 30 min, visual
[3] = Serum biochemical analysis and H&E histology of liver and kidney; type: in vivo, mice; conditions: 5 mg/kg every other day, 14 days
Experimental: In the biochemical and histological assays, 1n (5 mg/kg) and 1a (5 mg/kg) were administered to mice every other day, with the control group receiving an equivalent dose of saline. Following 14 days, mouse serum was collected for biochemical analysis, and organs were fixed for histological examination. […] In comparison, the liver tissues of the 1n-treated and control groups were normal.
Mice were euthanized, and liver and kidney tissues were collected and fixed in 10% neutral-buffered formalin for 48 h. The fixed tissues were processed for paraffin embedding, including dehydration in a graded ethanol series, clearing with xylene, and infiltration with molten paraffin wax. Paraffin blocks were sectioned into 4 μm slices using a rotary microtome, and the sections were mounted onto glass slides. The slides were dried at 60 °C for 4 h to ensure proper tissue adhesion. Following deparaffinization and rehydration, staining was performed according to the manufacturer’s instructions for the H&E staining kit (Solarbio, China). The sections were immersed in a hematoxylin solution for 3 min to stain the nuclei and then rinsed under running tap water for 1 minute to remove excess stain. Differentiation was achieved by briefly immersing the slides in a 1% hydrochloric acid-ethanol solution, followed by neutralization in 0.6% ammonia water until the nuclei appeared blue. Eosin staining was applied for 30 s to stain cytoplasmic and extracellular components, imparting a pink coloration. The slides were rinsed under running tap water for 30 s to remove excess eosin. Finally, the sections were dehydrated through a graded ethanol series, cleared with xylene, and coverslipped with a neutral resin mounting medium to preserve the stained tissues for microscopic examination.

[4] = PANC-1, 72 h, read-out: IC50 (nM), inhibitory activity against PANC-1 cells (Table 1), PANC-1 cells, 72 h incubation, mean ± SD, n = 3
[5] = PANC-1 cells, 72 h incubation, mean ± SD, n = 3, Table 2 series, read-out: IC50 (nM), inhibitory activity against PANC-1 cells (Table 2)

In the case of `CCCCC(C)CC(C)C(=O)N(C)C(Cc1ccc(OC)cc1)C(=O)NC(C(=O)N(C)C(C(=O)N1CC(O)CC1C(=O)N1C(=O)C=CC1C)C(C)C)C(C)OC(F)(F)F` (stereo not shown) [Compound 1c], the IC50 (PANC-1 cells; [4]) is reported as 2.07 ± 0.67 nM, the “stability in mouse plasma compared to 1a (in words)” value [1] is reported as “significantly superior stability compared to 1a” and the “tumor inhibition rate (%)” value (PANC-1 xenograft tumor; day 24, 1a, 1n 5 mg/kg) is reported as 40.4%.

Compound `CCCC[C@@H](C)C[C@@H](C)C(=O)N(C)[C@@H](Cc1ccc(OC)cc1)C(=O)N[C@H](C(=O)N(C)[C@H](C(=O)N1C[C@@H](O)C[C@H]1C(=O)N1C(=O)C=C[C@@H]1C)C(C)C)[C@@H](C)NC(=O)[C@@H](N)CC(C)C` [Compound 16e] has an IC50 (PANC-1 cells; [5]) of 34.2 ± 6.36 nM and a solubility [2] of 230 µg/mL (≈ 261 µM).

Work on `CCCC[C@@H](C)C[C@@H](C)C(=O)N(C)[C@@H](Cc1ccc(OC)cc1)C(=O)N[C@H](C(=O)N(C)[C@H](C(=O)N1C[C@@H](O)C[C@H]1C(=O)N1C(=O)C=C[C@@H]1C)C(C)C)[C@@H](C)NC(=O)[C@@H](N)CCSC` [Compound 16f] yielded an IC50 (PANC-1 cells; [5]) of 13.1 ± 6.3 nM and a solubility [2] of 170 µg/mL (≈ 189 µM).

Work on `CCCC[C@@H](C)C[C@@H](C)C(=O)N(C)[C@@H](Cc1ccc(OC)cc1)C(=O)N[C@H](C(=O)N(C)[C@H](C(=O)N1C[C@@H](O)C[C@H]1C(=O)N1C(=O)C=C[C@@H]1C)C(C)C)[C@@H](C)NC(=O)[C@H](C)N` [Compound 16h] yielded an IC50 (PANC-1 cells; [5]) of 79.9 ± 45.9 nM and a solubility [2] of 360 µg/mL (≈ 429 µM).

Compound `CCCC[C@@H](C)C[C@@H](C)C(=O)N(C)[C@@H](Cc1ccc(OC)cc1)C(=O)N[C@H](C(=O)N(C)[C@H](C(=O)N1C[C@@H](O)C[C@H]1C(=O)N1C(=O)C=C[C@@H]1C)C(C)C)[C@@H](C)NC(=O)[C@@H](N)[C@@H](C)O` [Compound 16b] has an IC50 (PANC-1 cells; [5]) of 116 ± 54 nM and a solubility [2] of 410 µg/mL (≈ 471 µM).

`CCCC[C@@H](C)C[C@@H](C)C(=O)N(C)[C@@H](Cc1ccc(OC)cc1)C(=O)N[C@H](C(=O)N(C)[C@H](C(=O)N1C[C@@H](O)C[C@H]1C(=O)N1C(=O)C=C[C@@H]1C)C(C)C)[C@@H](C)NC(=O)[C@@H](N)CCC(N)=O` [Compound 16i] gave an IC50 (PANC-1 cells; [5]) of 740 ± 713 nM and a solubility [2] of 530 µg/mL (≈ 591 µM).

`CCCC[C@@H](C)C[C@@H](C)C(=O)N(C)[C@@H](Cc1ccc(OC)cc1)C(=O)N[C@H](C(=O)N(C)[C@H](C(=O)N1C[C@@H](O)C[C@H]1C(=O)N1C(=O)C=C[C@@H]1C)C(C)C)[C@@H](C)NC(=O)CN` [Compound 16g] showed an IC50 (PANC-1 cells; [5]) of 43.1 ± 29.8 nM and a solubility [2] of 160 µg/mL (≈ 194 µM).

Work on `CCCC[C@@H](C)C[C@@H](C)C(=O)N(C)[C@@H](Cc1ccc(OC)cc1)C(=O)N[C@H](C(=O)N(C)[C@H](C(=O)N1C[C@@H](O)C[C@H]1C(=O)N1C(=O)C=C[C@@H]1C)C(C)C)[C@@H](C)NC(=O)[C@@H](N)Cc1ccccc1` [Compound 16l] yielded an IC50 (PANC-1 cells; [5]) of 55.4 ± 14.7 nM and a solubility [2] of 130 µg/mL (≈ 142 µM).

In the case of `CC(C)[N+](C)(CCOC(=O)C1c2ccccc2Oc2ccccc21)C(C)C` [bromopropyl, Propantheline bromide, reference compound], the “remaining percentage in mouse plasma after 2 h” value ([1]; 2 h incubation) is reported as 0.90%.

In the case of `CCCCCC[C@@H](C)C(=O)N(C)[C@@H](Cc1ccc(F)cc1)C(=O)N[C@H](C(=O)N(C)[C@H](C(=O)N1C[C@@H](O)C[C@H]1C(=O)N1C(=O)C=C[C@@H]1C)C(C)C)[C@@H](C)OC(F)(F)F` [Compound 1n], the “kidney tissue H&E histology” value [3] is reported as “no significant pathological differences”, the “liver tissue H&E histology” value [3] is reported as “normal” and the “serum ALT and AST levels compared to the control group” value ([3]; n = 3) is reported as “no significant differences”. For the same compound, the IC50 (PANC-1 cells; [4]) was 3.83 nM, the “stability in mouse plasma compared to 1a (in words)” value [1] was “significantly superior stability compared to 1a” and the “remaining percentage in mouse plasma after 24 h” value ([1]; 24 h incubation) was > 50%. The “impact on mouse body weight gain” value (PANC-1 xenograft tumor; 5 mg/kg i.v. every other day, 24 days) was “lesser impact on weight gain compared to 1a”, the “mice dead in treated group” value (PANC-1 xenograft tumor; 5 mg/kg i.v., xenografted mouse model, six mice per group) was “no mouse dead” and the “tumor inhibition rate (%)” value (PANC-1 xenograft tumor; day 24, 1a, 1n 5 mg/kg) was 51.5%. It also gave a tumor weight (PANC-1 xenograft tumor; day 24, i.v. every other day, 1a, 1n 5 mg/kg, gemcitabine 20 mg/kg, mean ± SD) of 0.542 ± 0.156 g and a tumor volume (PANC-1 xenograft tumor; i.v. every other day for 24 days, 1a, 1n 5 mg/kg, gemcitabine 20 mg/kg, mean ± SD, n = 6) of 553.3 ± 166.8 mm^3.

With `CCCC[C@@H](C)C[C@@H](C)C(=O)N(C)[C@@H](Cc1ccc(OC)cc1)C(=O)N[C@H](C(=O)N(C)[C@H](C(=O)N1C[C@@H](O)C[C@H]1C(=O)N1C(=O)C=C[C@@H]1C)C(C)C)[C@@H](C)NC(=O)[C@@H](N)CO` [Compound 16j] the IC50 (PANC-1 cells; [5]) was 184 ± 33.2 nM and the solubility [2] was 360 µg/mL (≈ 421 µM).
